The source of these data is patent US8754116B2, “Macrocyclic inhibitors of hepatitis C virus” (Janssen R&D Ireland, priority 2005, dated 2014).

Bounds are passed on as bounds.

The target in test [1] is HCV NS3/4A protease (Hepatitis C virus genotype 1a, UniProt P27958). Kind of test: Inhibition assay (enzymatic assay, depsipeptide substrate hydrolysis). Note: full-length NS3 protease 1 nM, 25 µM NS4A cofactor, 0.5 µM substrate. It counts as biochemical. How it is done:
[Landro, 1997 # Biochem 36 9340-9348]. […] The solutions were stored at −20° C. between measurements.
[Liu, 1999 Analytical Biochemistry 267 331-335].

Test [2] relates to HCV replicons (NS3-NS5B regions of HCV type 1b) in Huh-7 luc/neo (Huh-Luc) cells. The test is described as follows: Replicon assay (HCV RNA replication, luciferase read-out). Type of test: cell-based. To be noted: Hepatitis C virus, Huh-7, 72 h, incubation of three days, luciferase activity. The protocol: The in vitro antiviral activity against HCV of the compounds of formula (I) was tested in a cellular HCV replicon system based on Lohmann et al. (1999) Science 285:110-113, with the further modifications described by Krieger et al. (2001) Journal of Virology 75: 4614-4624, which is further exemplified in the examples section. This model, while not a complete infection model for HCV, is widely accepted as the most robust and efficient model of autonomous HCV RNA replication currently available. […] It will be appreciated that it is important to distinguish between compounds that specifically interfere with HCV functions from those that exert cytotoxic or cytostatic effects in the HCV replicon model, and as a consequence cause a decrease in HCV RNA or linked reporter enzyme concentration. […]
The replicon cells were plated in 384 well plates in the presence of the test and control compounds which were added in various concentrations. Following an incubation of three days, HCV replication was measured by assaying luciferase activity (using standard luciferase assay substrates and reagents and a Perkin Elmer ViewLux™ ultraHTS microplate imager). […] The inhibitory activity of the compound on luciferase activity was monitored on the Huh-Luc cells, enabling a dose-response curve for each test compound.

Sequence of HCV NS3/4A protease (P27958 1027-1657): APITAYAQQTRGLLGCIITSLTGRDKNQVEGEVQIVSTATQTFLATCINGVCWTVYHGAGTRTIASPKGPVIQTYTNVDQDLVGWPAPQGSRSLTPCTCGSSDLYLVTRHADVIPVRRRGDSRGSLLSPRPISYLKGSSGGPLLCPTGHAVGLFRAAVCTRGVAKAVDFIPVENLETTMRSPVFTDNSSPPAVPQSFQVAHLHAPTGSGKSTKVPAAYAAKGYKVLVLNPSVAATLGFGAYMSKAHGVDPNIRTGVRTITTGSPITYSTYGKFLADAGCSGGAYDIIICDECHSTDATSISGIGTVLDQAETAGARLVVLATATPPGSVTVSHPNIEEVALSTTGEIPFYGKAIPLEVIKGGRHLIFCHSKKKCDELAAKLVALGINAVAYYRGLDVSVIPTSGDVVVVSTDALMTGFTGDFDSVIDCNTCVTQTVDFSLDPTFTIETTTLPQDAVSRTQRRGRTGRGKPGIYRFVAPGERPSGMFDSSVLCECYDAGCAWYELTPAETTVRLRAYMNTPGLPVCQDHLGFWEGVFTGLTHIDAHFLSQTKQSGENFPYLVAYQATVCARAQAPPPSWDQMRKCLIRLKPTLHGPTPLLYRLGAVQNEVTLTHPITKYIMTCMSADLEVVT

As to `CN1CCCC/C=C\[C@@H]2C[C@@]2(C(=O)O)NC(=O)[C@@H]2C[C@@H](n3nnc(-c4ccccc4)n3)C[C@H]2C1=O` [Compound 9, 17-(5-phenyltetrazol-2-yl)-13-methyl-2,14-dioxo-3,13-diazatricyclo[13.3.0.0^4,6]octadec-7-ene-4-carboxylic acid], in test [1], the Ki – broadly, the dissociation constant of the complex between target and ligand, obtained from inhibition or displacement – was more than 1000 nM. Also, the EC50 (usually the concentration giving half of the maximal effect) in test [2] is more than 10 µM.
The compound `CN1CCCC/C=C\[C@@H]2C[C@@]2(C(=O)NS(=O)(=O)C2CC2)NC(=O)[C@@H]2C[C@@H](n3nnc(-c4ccccc4)n3)C[C@H]2C1=O` [Compound 10, N-[17-(5-phenyltetrazol-2-yl)-13-methyl-2,14-dioxo-3,13-diazatricyclo[13.3.0.0^4,6]octadec-7-ene-4-carbonyl](cyclopropyl)sulfonamide] gave a Ki in test [1] of 30 nM. Also, the EC50 in test [2] was found to be 3.43 µM.
